Literature values in PMC9834611 (Pharmacology Research & Perspectives, 2023).

Tests used:
[1] = cited from earlier work
ABCB1 = system: ABCB1; set-up: method as in PMID 11770010; details: Caco‐2 cell lines; cited from earlier work
CYP3A4 = system: CYP3A4; set-up: method as in PMID 25141173; details: cited from earlier work

Compound	LD50 compared with parent VBL [1]	effect on ABCB1 (ABCB1)	increase in CYP3A4 mRNA expression (CYP3A4)	effect on CYP3A4 (CYP3A4; human hepatocytes)
CC[C@]1(O)C[C@@H]2CN(CCc3c([nH]c4ccccc34)[C@@](C(=O)OC)(c3cc4c(cc3OC)N(C)[C@H]3[C@@](O)(C(=O)OC)[C@H](O)[C@]5(CC)C=CCN6CC[C@]43[C@@H]65)C2)C1 [4‐deacetylvinblastine]	lower than that of the parent	–	–	–
COc1ccc2[nH]c([S+]([O-])Cc3ncc(C)c(OC)c3C)nc2c1 (stereo not shown) [Omeprazole]	–	inhibitor	twofold	inducer
